From BindingDB's records for doi:10.1021/acs.jmedchem.7b01449 (University of Antwerp, 2018) come the findings set out here.

Assay [1] has as its target T1, Receptor-interacting serine/threonine-protein kinase 1 (Mus musculus, UniProt Q60855).
T1 sequence (Q60855 whole entry): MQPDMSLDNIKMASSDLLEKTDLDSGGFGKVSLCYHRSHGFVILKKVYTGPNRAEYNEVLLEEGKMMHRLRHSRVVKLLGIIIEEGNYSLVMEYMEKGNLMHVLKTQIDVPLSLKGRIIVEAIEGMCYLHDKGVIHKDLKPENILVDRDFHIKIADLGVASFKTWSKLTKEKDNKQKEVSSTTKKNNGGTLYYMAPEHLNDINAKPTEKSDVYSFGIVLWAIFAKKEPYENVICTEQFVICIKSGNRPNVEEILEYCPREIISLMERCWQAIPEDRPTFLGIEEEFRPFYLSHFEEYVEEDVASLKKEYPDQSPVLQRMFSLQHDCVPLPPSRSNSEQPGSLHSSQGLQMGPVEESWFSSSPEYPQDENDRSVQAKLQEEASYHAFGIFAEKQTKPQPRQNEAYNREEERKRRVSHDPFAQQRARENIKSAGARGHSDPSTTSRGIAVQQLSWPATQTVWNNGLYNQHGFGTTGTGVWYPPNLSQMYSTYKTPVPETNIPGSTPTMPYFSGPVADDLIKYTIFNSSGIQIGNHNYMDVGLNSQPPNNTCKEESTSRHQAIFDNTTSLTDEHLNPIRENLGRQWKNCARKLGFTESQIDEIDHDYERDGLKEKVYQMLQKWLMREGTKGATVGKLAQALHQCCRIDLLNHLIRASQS
Put plainly: (§1) Inhibition of RIPK1 in mouse L929sA cells transfected with human Fas assessed as inhibition in TNF-induced necroptosis pretreated for 24 hrs followed by TNF and zVAD.fmk addition measured after 3 hrs by Hoechst 33342/propidium iodide staining-based assay.

Assay [2] can be described thus: Inhibition of RIPK1 in mouse L929sA cells transfected with human Fas assessed as inhibition in TNF-induced necroptosis pretreated for 0.5 hrs followed by TNF and zVAD.fmk addition measured after 3 hrs by Hoechst 33342/propidium iodide staining-based assay.
Assay [3] is described as follows: Inhibition of RIPK1 in mouse L929sA cells transfected with human Fas assessed as inhibition in TNF-induced necroptosis pretreated for 24 hrs followed by TNF and zVAD.fmk addition measured after 3 hrs by Hoechst 33342/propidium iodide staining-based assay.
Assay [4] concerns the target T1, Receptor-interacting serine/threonine-protein kinase 1. Put plainly: ChEBML_1697666.
Source text: as §1

Assay [5] is described as follows: Inhibition of RIPK1 in mouse L929sA cells transfected with human Fas assessed as inhibition in TNF-induced necroptosis pretreated for 24 hrs followed by TNF and zVAD.fmk addition measured after 3 hrs by Hoechst 33342/propidium iodide staining-based assay. The source holds these as a separate data set.
A short description of assay [6]: Inhibition of RIPK1 in mouse L929sA cells transfected with human Fas assessed as inhibition in TNF-induced necroptosis pretreated for 0.5 hrs followed by TNF and zVAD.fmk addition measured after 3 hrs by Hoechst 33342/propidium iodide staining-based assay. The source holds these as a separate data set.

pIC50: −log10 of the molar value.

On to `Cc1cc(Nc2cc(N3CCN(C)CC3)nc(Sc3ccc(NC(=O)C4CCCCC4)cc3)n2)n[nH]1`, for which the pIC50 in assay [1] is < 5.52. Same read-out and setting: in the case of `Cc1[nH]nc(Nc2cc(N3CCCCC3)nc(Nc3ccc(NC(=O)C4CC4)cc3)n2)c1C` it was < 5.52. Regarding `Cc1cc(Nc2cc(N3CCCCC3)nc(Sc3ccc(NC(=O)C4CCCCC4)cc3)n2)n[nH]1`, the pIC50 in assay [2] was 5.76; in assay [3], 5.30. Consider `Cc1cc(Nc2cc(N3CCCCC3)nc(Nc3ccc(NC(=O)C4CCCCC4)cc3)n2)n[nH]1`, for which the figures for the negative-log IC50 (pIC50) in assay [4] and in assay [3] were < 5.52 and 5.71, respectively.

With `Cc1cc(Nc2cc(N3CCOCC3)nc(Nc3ccc(NC(=O)C4CCCCC4)cc3)n2)n[nH]1`, the negative logarithm of the IC50 (pIC50) in assay [2] is 6.19; in assay [3] it was 5.82.

Consider `Cc1cc(Nc2cc(N3CCOCC3)nc(Sc3ccc(NC(=O)C4CC4)cc3)n2)n[nH]1`, for which the negative-log IC50 (pIC50) in assay [2] is 6.41; in assay [3] it was 6.09.

`Cc1[nH]nc(Nc2cc(N3CCN(C)CC3)nc(Sc3ccc(NC(=O)C4CCCCC4)cc3)n2)c1C`: the pIC50 in assay [2] and in assay [3] was < 5.52 in each case. On to `Cc1[nH]nc(Nc2nc(Sc3ccc(NC(=O)C4CCCCC4)cc3)nc(N3CCOCC3)n2)c1C`, for which the pIC50 in assay [5] was < 5.52. With `Cc1[nH]nc(Nc2cc(N3CCOCC3)nc(Nc3ccc(NC(=O)C4CC4)cc3)n2)c1C`, the pIC50 in assay [2] and in assay [3] was < 5.52 throughout. Take `Cc1cc(Nc2nc(Nc3ccc(NC(=O)C4CC4)cc3)nc(N3CCN(C)CC3)n2)n[nH]1`: the negative-log IC50 (pIC50) in assay [2] and in assay [3] was < 5.52 each time. In the case of `Cc1cc(Nc2nc(Nc3ccc(NC(=O)C4CC4)cc3)nc(N3CCOCC3)n2)n[nH]1`, the negative-log IC50 (pIC50) in assay [3] was 5.58; in assay [6], 5.97.

Consider `Cc1[nH]nc(Nc2cc(N3CCOCC3)nc(Nc3ccc(NC(=O)C4CCCCC4)cc3)n2)c1C`, for which the pIC50 in assay [2] and in assay [3] was < 5.52 throughout.

For the compound `Cc1cc(Nc2nc(Nc3ccc(NC(=O)C4CCCCC4)cc3)nc(N3CCN(C)CC3)n2)n[nH]1`, in assay [3], the pIC50 is < 5.52. As to `Cc1cc(Nc2nc(Sc3ccc(NC(=O)C4CCCCC4)cc3)nc(N3CCCCC3)n2)n[nH]1`, the negative logarithm of the IC50 (pIC50) in assay [2] and in assay [3] was < 5.52 throughout.

For `Cc1[nH]nc(Nc2cc(N3CCCCC3)nc(Sc3ccc(NC(=O)C4CCCCC4)cc3)n2)c1C`, the pIC50 in assay [3] was < 5.52. Consider `Cc1[nH]nc(Nc2nc(Sc3ccc(NC(=O)C4CC4)cc3)nc(N3CCN(C)CC3)n2)c1C`, for which the pIC50 in assay [3] was < 5.52. With `Cc1cc(Nc2nc(Nc3ccc(NC(=O)C4CC4)cc3)nc(N3CCCCC3)n2)n[nH]1`, the negative-log IC50 (pIC50) in assay [4] is < 5.52. Regarding `Cc1cc(Nc2nc(Nc3ccc(NC(=O)C4CCCCC4)cc3)nc(N3CCCCC3)n2)n[nH]1`, the negative-log IC50 (pIC50) in assay [2] and in assay [3] was < 5.52 throughout. As for `Cc1cc(Nc2nc(Sc3ccc(NC(=O)C4CCCCC4)cc3)nc(N3CCN(C)CC3)n2)n[nH]1`, the pIC50 in assay [2] and in assay [5] was < 5.52 each time. In the case of `Cc1cc(Nc2cc(N3CCCCC3)nc(Nc3ccc(NC(=O)C4CC4)cc3)n2)n[nH]1`, the results for the negative logarithm of the IC50 (pIC50) in assay [2] and in assay [3] were 6.28 and 6.17, respectively. `Cc1[nH]nc(Nc2cc(N3CCOCC3)nc(Sc3ccc(NC(=O)C4CCCCC4)cc3)n2)c1C`: the pIC50 in assay [2] and in assay [5] was < 5.52 in each case. With `Cc1cc(Nc2cc(N3CCCCC3)nc(Sc3ccc(NC(=O)C4CC4)cc3)n2)n[nH]1`, the negative logarithm of the IC50 (pIC50) in assay [3] was 5.76. Regarding `Cc1[nH]nc(Nc2nc(Sc3ccc(NC(=O)C4CCCCC4)cc3)nc(N3CCN(C)CC3)n2)c1C`, the pIC50 in assay [1] is < 5.52. Take `Cc1[nH]nc(Nc2nc(Sc3ccc(NC(=O)C4CCCCC4)cc3)nc(N3CCCCC3)n2)c1C`: the negative logarithm of the IC50 (pIC50) in assay [1] is < 5.52. Take `Cc1[nH]nc(Nc2nc(Nc3ccc(NC(=O)C4CC4)cc3)nc(N3CCCCC3)n2)c1C`: the pIC50 in assay [2] and in assay [5] was < 5.52 throughout.

As to `Cc1cc(Nc2nc(Sc3ccc(NC(=O)C4CC4)cc3)nc(N3CCCCC3)n2)n[nH]1`, the negative logarithm of the IC50 (pIC50) in assay [2] and in assay [3] was < 5.52 each time.

With `Cc1[nH]nc(Nc2nc(Nc3ccc(NC(=O)C4CC4)cc3)nc(N3CCN(C)CC3)n2)c1C`, the pIC50 in assay [2] and in assay [5] was < 5.52 throughout. Take `Cc1[nH]nc(Nc2nc(Sc3ccc(NC(=O)C4CC4)cc3)nc(N3CCCCC3)n2)c1C`: the pIC50 in assay [3] was < 5.52.

In the case of `Cc1cc(Nc2nc(Sc3ccc(NC(=O)C4CC4)cc3)nc(N3CCOCC3)n2)n[nH]1`, the pIC50 in assay [3] was 5.84; in assay [6], 6.15. With `Cc1[nH]nc(Nc2nc(Nc3ccc(NC(=O)C4CCCCC4)cc3)nc(N3CCN(C)CC3)n2)c1C`, in assay [1], the negative logarithm of the IC50 (pIC50) is < 5.52. For the compound `Cc1cc(Nc2nc(Sc3ccc(NC(=O)C4CCCCC4)cc3)nc(N3CCOCC3)n2)n[nH]1`, the negative logarithm of the IC50 (pIC50) in assay [2] was < 5.52; in assay [5] it was 5.79. Take `Cc1cc(Nc2nc(Sc3ccc(NC(=O)C4CC4)cc3)nc(N3CCN(C)CC3)n2)n[nH]1`: the pIC50 in assay [2] is < 5.52; in assay [3] it was 5.94.

With `Cc1[nH]nc(Nc2nc(Nc3ccc(NC(=O)C4CCCCC4)cc3)nc(N3CCOCC3)n2)c1C`, the negative-log IC50 (pIC50) in assay [1] is < 5.52. For the compound `Cc1cc(Nc2cc(N3CCN(C)CC3)nc(Nc3ccc(NC(=O)C4CCCCC4)cc3)n2)n[nH]1`, the pIC50 in assay [2] was 6.04; in assay [3] it was 5.76. Turning to `Cc1[nH]nc(Nc2nc(Nc3ccc(NC(=O)C4CC4)cc3)nc(N3CCOCC3)n2)c1C`, the pIC50 in assay [2] and in assay [5] was < 5.52 each time. On to `Cc1[nH]nc(Nc2cc(N3CCCCC3)nc(Nc3ccc(NC(=O)C4CCCCC4)cc3)n2)c1C`, for which the pIC50 in assay [2] and in assay [5] was < 5.52 throughout.

In the case of `Cc1cc(Nc2cc(N3CCOCC3)nc(Sc3ccc(NC(=O)C4CCCCC4)cc3)n2)n[nH]1`, the negative logarithm of the IC50 (pIC50) in assay [2] was 6.42; in assay [5], 6.44. As for `Cc1[nH]nc(Nc2cc(N3CCN(C)CC3)nc(Nc3ccc(NC(=O)C4CC4)cc3)n2)c1C`, the pIC50 in assay [2] and in assay [3] was < 5.52 in each case. For the compound `Cc1cc(Nc2cc(N3CCN(C)CC3)nc(Nc3ccc(NC(=O)C4CC4)cc3)n2)n[nH]1`, the pIC50 in assay [3] was 6.19; in assay [6], 5.98. For the compound `Cc1cc(Nc2nc(Nc3ccc(NC(=O)C4CCCCC4)cc3)nc(N3CCOCC3)n2)n[nH]1`, the pIC50 in assay [2] and in assay [5] was < 5.52 in each case. For `Cc1[nH]nc(Nc2nc(Sc3ccc(NC(=O)C4CC4)cc3)nc(N3CCOCC3)n2)c1C`, in assay [3], the pIC50 was < 5.52.

For the compound `Cc1[nH]nc(Nc2cc(N3CCN(C)CC3)nc(Nc3ccc(NC(=O)C4CCCCC4)cc3)n2)c1C`, the negative logarithm of the IC50 (pIC50) in assay [5] is < 5.52. Regarding `CCN1CCN(c2cc(Nc3n[nH]c(C)c3C)nc(Sc3ccc(NC(=O)C4CC4)cc3)n2)CC1`, the pIC50 in assay [2] and in assay [3] was < 5.52 each time. For `Cc1[nH]nc(Nc2nc(Nc3ccc(NC(=O)C4CCCCC4)cc3)nc(N3CCCCC3)n2)c1C`, the negative logarithm of the IC50 (pIC50) in assay [1] was < 5.52.

As usually defined, the pIC50 is the IC50 on a negative log10 scale, so that one unit is a factor of ten.
